PMC7560154, “Novel Antimicrobial Peptide from Temporin L in The Treatment of Staphylococcus pseudintermedius and Malassezia pachydermatis in Polymicrobial Inter-Kingdom Infection” (Antibiotics, 2020)
Converted amounts (≈) assume the structure as drawn. Where a SMILES comes first, the peptide text is derived from it. [ ]: non-standard residue; d: D form.

Tests used:
[1] = tested on: methicillin-resistant S. pseudintermedius (MRSP); assay: microbe, parasite or virus in culture; type: cell-based, Staphylococcus pseudintermedius
Description: (§1) MIC of all compounds was determined in Sabouraud Dextrose broth with 1% tween 80 (SB) medium, for M. pachydermatis, and Mueller–Hinton broth (MH), for S. pseudintermedius, by the broth microdilution assay (BMD) in 96-well microtiter plates, as previously reported. Specifically, SB containing 1% Tween 80 was used instead of RPMI 1640 medium. All compounds were dissolved in ethanol and ketoconazole in dimethyl sulfoxide (DMSO). The solutions were serially diluted in SB and MH two-fold from 0.19 to 50 μM. M. pachydermatis suspension was prepared from 3-day-old colonies grown on Sabouraud agar at 30 °C. The final concentration of the yeast inoculum suspensions was equivalent to 1–3 × 10^3 CFU/mL. Bacterial suspensions were diluted to yield an optical density (OD) around 0.5 at 595 nm and further diluted to a final concentration of 1 × 10^6 CFU/mL. The compounds were added to the microbial suspension in each well yielding a final cell concentration of 5 × 10^5 CFU/mL. Positive controls included oxacillin 5 μM (2 μg/mL) and vancomycin 1.4 μM (2 μg/mL) for S. pseudintermedius or ketoconazole 0.2 μM (0.125 μg/mL) for M. pachydermatis. Negative control wells were set to contain bacteria in MH or yeasts in SB plus the amount of ethanol used to dilute each compound. Medium turbidity was measured by a microtiter plate reader (Tecan, Milan, Italy) at 595 nm after 24 h for S. pseudintermedius and 48 h for M. pachydermatis. Absorbance was proportional to microbial growth. The MIC was defined as the lowest concentration of drug that caused a prominent decrease (≥90% inhibition) in visible growth relative to that of the growth control.

[2] = tested on: methicillin-susceptible S. pseudintermedius (MSSP); assay: microbe, parasite or virus in culture; type: cell-based, Staphylococcus pseudintermedius
Description: as §1

MRSP = assay: Checkerboard synergy of peptide 8 and oxacillin; type: cell-based, Staphylococcus pseudintermedius; conditions: MRSP
Description: The interaction between peptide 8 and oxacillin against MRSP was evaluated by the checkerboard method. Briefly, twofold serial dilutions of oxacillin distributed in horizontal rows of 96-well microtiter plate were cross-diluted vertically by twofold serial dilutions of peptide 8 to at least double the MIC. The peptide 8 tested concentration ranging from 0.19 to 12.5 μM and oxacillin from 1.25 to 25 μM (0.5 to 10 μg/mL). Microtiter plates were inoculated with bacteria at an approximate concentration of 10^5 CFU/mL and incubated at 37 °C for 24 h. […] To evaluate the effect of the combination treatment, the fractional inhibitory concentration (FIC) index for each combination was calculated as follows: FIC index = FIC of peptide 8 + FIC of oxacillin, where FIC of peptide 8 (or oxacillin) was defined as the ratio of MIC of peptide 8 (or oxacillin) in combination and MIC of peptide 8 (or oxacillin) alone. The FIC index values were interpreted as follows: ≤0.5, synergistic; >0.5 to ≤1.0, additive; >1.0 to ≤2.0, indifferent; and >2.0, antagonistic effects.

MRSP biofilm formation = assay: Biofilm formation, crystal violet assay, MRSP; type: cell-based, Staphylococcus pseudintermedius; conditions: sub-MIC 0.095 to 0.78 μM, 24 h
Description: Anti-biofilm activity of peptide 8 was examined by the crystal violet assay previously described with minor modifications. Microtiter plates were inoculated with bacteria at a final density of 10^6 CFU/mL and treated with peptide 8 ranging from 0.095 to 0.78 μM. Control cells were grown in the absence of peptide 8. After 24 h incubation at 37 °C, the supernatant was gently removed, and the wells were rinsed twice with PBS. The amount of biofilm formed in the wells was measured by crystal violet staining and the absorbance of the solution was measured at 595 nm.

MRSP mature biofilm [3] = assay: Mature biofilm biomass, crystal violet assay, MRSP; type: cell-based, Staphylococcus pseudintermedius; conditions: MRSP one-day-old biofilm, up to 25 μM, 24 h
Description: Biofilms were allowed to form in each well of a 96-well microtiter plate, as described by Stepanovic. After 24 h, planktonic cells were aspirated, and the plates were washed with 200 μL of PBS. Cells biofilms were exposed to 200 μL of peptide 8 at the final concentration ranging from 6.25 to 25 μM and the plate was further incubated for 24 h at 37 °C. Positive controls were non-treated cells incubated with 200 μL of medium broth. At the end of the experiment crystal violet-staining was performed to assess biofilm mass.

MRSP mature biofilm [4] = assay: Mature biofilm metabolic activity, XTT assay, MRSP; type: cell-based, Staphylococcus pseudintermedius; conditions: 24 h
Description: The metabolic activity of MSSP and MRSP mature biofilms was quantified by the XTT [2,3-bis(2-methyloxy-4-nitro-5-sulfophenyl)-2H-tetrazolium-5-carboxanilide] (Roche Diagnostics, Germany) reduction assay. The assay was conducted as previously described with some modifications. XTT (150 µL) was added to biofilms in each well and the plates were incubated for 40 min at 37 °C in the dark. The reduction of the tetrazolium salt by cellular dehydrogenase into orange formazan dye was photometrically measured at 490 nm. The medium was set as negative control. Viability values for each well were compared to controls.

human keratinocytes = conditions: at MICs; cited from earlier work
Excerpt: Azole drugs represent the first choice to treat Malassezia-related infections. It is well known that routine antifungal administration may induce acquired resistance. Peptide 8 was further investigated to verify if prolonged treatment might induce resistance in the yeast. […] Thus, a prolonged application of peptide 8 can be resolutive for yeast infection, without causing drug-resistance. By considering the good results obtained until here, we were prompted to inves ...

[5] = ref unpublished results, cited from earlier work

## CC[C@H](C)[C@H](NC(=O)[C@H](CCCNC(=N)N)NC(=O)[C@@H](CCCCN)NC(=O)[C@@H](CC(C)C)NC(=O)[C@H](Cc1ccccc1)NC(=O)[C@H](CCCCN)NC(=O)[C@H](CO)NC(=O)[C@H](Cc1ccccc1)NC(=O)[C@H](Cc1c[nH]c2ccccc12)NC(=O)[C@@H]1CCCN1C(=O)[C@@H](NC(=O)[C@@H](N)Cc1ccccc1)C(C)C)C(=O)N[C@@H](CC(C)C)C(N)=O [Peptide 8] (H-FVPWFSKF[dL][dK]RIL-NH2; N-terminus assumed)
[1]; 24 h
  MBC: 12.5 µM (≈ 21 µg/mL)
[1]; 24 h, read-out: MIC
  MIC: 6.25 µM (≈ 10.5 µg/mL)
[1]; MRSP
  MBC/MIC Ratio: 2
[2]; 24 h
  MBC: 3.12 µM (≈ 5.24 µg/mL)
[2]; 24 h, read-out: MIC
  MIC: 1.56 µM (≈ 2.62 µg/mL)
[2]; MSSP
  MBC/MIC Ratio: 2
MRSP; peptide 8 + oxacillin, checkerboard, 37 °C 24 h, ≤0.5 synergistic
  FICindex: 0.37
MRSP; with 3.1 μM oxacillin, 1/4 MIC
  Concentration of peptide 8 in the most synergistic combination: 1.56 µM
MRSP biofilm formation
  Effect on biofilm formation: ineffective
MRSP mature biofilm [3]
  Effect on mature biofilm biomass: did not affect the biomass
MRSP mature biofilm [4]; 6.25 μM
  Reduction of biofilm viability: 38%
MRSP mature biofilm [4]; 12.5 μM
  Reduction of biofilm viability: 52%
MRSP mature biofilm [4]; 25 μM
  Effect on biofilm viability at 25 μM: reduced effect
Human keratinocytes
  Cytotoxicity: low cytotoxicity
[5]; aqueous solution
  Aggregation state and conformation in aqueous solution: monomeric with a random coil conformation
[5]; membrane mimetic environments
  Aggregation in membrane mimetic environments: significant ability to aggregate
